“And” between values parts separate entries of the source, which are not always exact repeats. Identical values can stand only once.
Columns and labels:
[1] = biological target: T1, hHINT2 WT (Homo sapiens, UniProt Q9BX68); assay: Isothermal titration calorimetry, hHINT2 WT; assay type: binding
[2] = biological target: T2, hHINT2 R99Q (Homo sapiens, UniProt Q9BX68, R99Q); assay: Isothermal titration calorimetry, hHINT2 R99Q; assay type: binding
[3] = tested on: hHINT1 WT; details: ITC; cited from earlier work
[4] = biological target: T3, hHINT1 Q62A (Homo sapiens, UniProt P49773, Q62A); assay: Steady-state kinetics assay; assay type: biochemical
T3 sequence (P49773 whole entry Q62A): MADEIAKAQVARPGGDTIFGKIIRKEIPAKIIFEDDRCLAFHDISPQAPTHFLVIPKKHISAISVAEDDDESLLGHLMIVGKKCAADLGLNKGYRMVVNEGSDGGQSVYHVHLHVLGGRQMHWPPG

[5] = biological target: T4, hHINT1 Q62R (Homo sapiens, UniProt P49773, Q62R); assay: Steady-state kinetics assay; assay type: biochemical; details: steady-state 25 °C
T4 sequence (P49773 whole entry Q62R): as the sequence (P49773 whole entry Q62A) above, with A62R counted along it

[6] = biological target: T3, hHINT1 Q62A; assay: Stopped-flow burst-phase adenylation kinetics, hHINT1 Q62A; assay type: biochemical
[7] = biological target: T4, hHINT1 Q62R; assay: Stopped-flow burst-phase adenylation kinetics, hHINT1 Q62R; assay type: biochemical
[8] = biological target: T5, hHINT2 R99A (Homo sapiens, UniProt Q9BX68, R99A); assay: Steady-state kinetics assay; assay type: biochemical
T5 sequence (Q9BX68 37-163 R99A limits assumed): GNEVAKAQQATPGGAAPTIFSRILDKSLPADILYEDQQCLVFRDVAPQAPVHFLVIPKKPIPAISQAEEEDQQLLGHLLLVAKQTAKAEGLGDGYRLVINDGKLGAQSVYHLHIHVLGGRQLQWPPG

[9] = biological target: T2, hHINT2 R99Q; assay: Steady-state kinetics assay; assay type: biochemical; details: steady-state 25 °C
[10] = biological target: T1, hHINT2 WT; assay: Stopped-flow burst-phase adenylation kinetics, hHINT2 WT; assay type: biochemical
[11] = biological target: T5, hHINT2 R99A; assay: Stopped-flow burst-phase adenylation kinetics, hHINT2 R99A; assay type: biochemical
[12] = biological target: T2, hHINT2 R99Q; assay: Stopped-flow burst-phase adenylation kinetics, hHINT2 R99Q; assay type: biochemical
[13] = biological target: hHINT1 (Homo sapiens, UniProt P49773); assay: Time course simulation; assay type: biochemical
hHINT1, sequence (P49773 whole entry): as the sequence (P49773 whole entry Q62A) above, with A62Q counted along it

[14] = biological target: hHINT2 (Homo sapiens, UniProt Q9BX68); assay: Time course simulation; assay type: biochemical
hHINT2, sequence (Q9BX68 37-163 limits assumed): as the sequence (Q9BX68 37-163 R99A limits assumed) above, with A63R counted along it

[15] = tested on: hHINT1 WT; details: steady-state 25 °C, cited from earlier work
[16] = tested on: hHINT1 WT; details: cited from earlier work
[17] = pH 7.2, read-out: k1, E+TpAd ⇆ E•TpAd
[18] = pH 7.2, read-out: k−1, E+TpAd ⇆ E•TpAd
[19] = time course simulation, 4.3 °C, hHINT1
[20] = time course simulation, 4.3 °C, hHINT1, k4 and k5 can be interchanged without altering the fit
[21] = time course simulation, 4.3 °C, hHINT2
[22] = time course simulation, 4.3 °C, hHINT2, k4 and k5 can be interchanged without altering the fit

T1 sequence (Q9BX68 37-163 limits assumed): as the sequence (Q9BX68 37-163 R99A limits assumed) above, with A63R counted along it
T2 sequence (Q9BX68 37-163 R99Q limits assumed): as the sequence (Q9BX68 37-163 R99A limits assumed) above, with A63Q counted along it

In the case of `O=C(CCc1c[nH]c2ccccc12)NS(=O)(=O)OC[C@H]1O[C@@H](n2cnc3c2ncn2ccnc32)[C@H](O)[C@@H]1O` [Inhibitor 1], the Kd [1] is reported as 9.43 ± 0.45 µM, the ΔH ([1]; ITC 25 °C, 10 mM Tris, 150 mM NaCl, pH 7.2, hHINT2 WT) is reported as -10.54 ± 0.16 kcal/mol and the “-TΔS” value ([1]; ITC 25 °C, pH 7.2, hHINT2 WT) is reported as 3.69 ± 0.17 kcal/mol. For the same compound, the “n (binding stoichiometry)” value ([1]; ITC 25 °C, pH 7.2, hHINT2 WT) was 0.80, the ΔG ([1]; ITC 25 °C, pH 7.2, hHINT2 WT) was -6.84 ± 0.32 kcal/mol and the Kd [2] was 6.94 ± 0.51 µM. The “-TΔS” value ([2]; ITC 25 °C, pH 7.2, hHINT2 R99Q) was 7.68 ± 0.55 kcal/mol, the “n (binding stoichiometry)” value ([2]; ITC 25 °C, pH 7.2, hHINT2 R99Q) was 1.1 and the ΔH ([2]; ITC 25 °C, pH 7.2, hHINT2 R99Q) was -14.72 ± 0.10 kcal/mol. For the same compound, the “-TΔS” value [3] was 8.19 ± 0.13 kcal/mol.

For `Nc1ncnc2c1ncn2[C@@H]1O[C@H](COP(=O)(O)NCCc2c[nH]c3ccccc23)[C@@H](O)[C@H]1O` [TpAd, adenosine tryptamine phosphoramidate monoester], the “kcat decrease, hHINT1 Q62A vs wild-type” value ([4]; steady-state) was 5 fold, the “Km Q62A/WT Ratio” value ([4]; steady-state 25 °C, hHINT1) was 0.12 and the “kcat Q62A/WT Ratio” value ([4]; steady-state 25 °C, hHINT1) was 0.21. For the same compound, the “kcat/Km Q62A/WT Ratio” value ([4]; steady-state 25 °C, hHINT1) was 1.87, the “kcat Q62R/WT Ratio” value [5] was 0.67 and the “kcat/Km Q62R/WT Ratio” value [5] was 0.73. For the same compound, the Kd [6] was 4.9 ± 0.5 µM, the “k2 Q62A/WT Ratio” value ([6]; burst phase 25 °C, hHINT1) was 0.85 and the “k2 (adenylation rate constant)” value ([6]; burst phase 25 °C, hHINT1 Q62A) was 172 ± 6 s⁻¹. For the same compound, the Kd [7] was 2.9 ± 0.2 µM, the “KD Q62R/WT Ratio” value ([7]; burst phase 25 °C, hHINT1) was 0.2 and the “k2 Q62R/WT Ratio” value ([7]; burst phase 25 °C, hHINT1) was 0.89. The “k2 (adenylation rate constant)” value ([7]; burst phase 25 °C, hHINT1 Q62R) was 180 ± 9 s⁻¹, the “decrease in steady-state turnover, hHINT2 R99A vs wild-type” value ([8]; steady-state) was 2 fold and the “Km R99A/WT Ratio” value ([8]; steady-state 25 °C, hHINT2) was 0.75. For the same compound, the “kcat R99A/WT Ratio” value ([8]; steady-state 25 °C, hHINT2) was 0.46, the “kcat/Km R99A/WT Ratio” value ([8]; steady-state 25 °C, hHINT2) was 0.65 and the “Km R99Q/WT Ratio” value [9] was 0.92. The “kcat R99Q/WT Ratio” value [9] was 1.04, the “kcat/Km R99Q/WT Ratio” value [9] was 1.18 and the Kd [10] was 5.44 ± 0.58 µM. For the same compound, the “k2 (adenylation rate constant)” value ([10]; burst phase 4 °C, hHINT2 WT) was 89.7 s⁻¹ and 89.7 ± 5.1 s⁻¹, the Kd [11] was 6 ± 0.47 µM and the “KD R99A/WT Ratio” value ([11]; burst phase 4 °C, hHINT2) was 1.10. For the same compound, the “k2 R99A/WT Ratio” value ([11]; burst phase 4 °C, hHINT2) was 0.96, the “k2 (adenylation rate constant)” value ([11]; burst phase 4 °C, hHINT2 R99A) was 86.4 ± 6.1 s⁻¹ and the Kd [12] was 5.45 ± 0.6 µM. For the same compound, the “KD R99Q/WT Ratio” value ([12]; burst phase 4 °C, hHINT2) was 1.00, the “k2 R99Q/WT Ratio” value ([12]; burst phase 4 °C, hHINT2) was 1.04 and the “k2 (adenylation rate constant)” value ([12]; burst phase 4 °C, hHINT2 R99Q) was 93.2 ± 5.0 s⁻¹. The kon [13, 17] was > 9.5e+06 M⁻¹ s⁻¹, the koff [13, 18] was > 60 s⁻¹ and the “k2, E•TpAd ⇆ E-NMP•Tp” value [13, 19] was 56.5 ± 2.5 s⁻¹. For the same compound, the “k3, E-NMP•Tp ⇆ E-NMP + Tp” value [13, 19] was >2000 s⁻¹, the “k−2, E•TpAd ⇆ E-NMP•Tp” value [13, 19] was 0 and the “k−3, E-NMP•Tp ⇆ E-NMP + Tp” value [13, 19] was 0. For the same compound, the “k−4, E-NMP + H20 ⇆ E’-NMP” value [13, 19] was 0, the “k−5, E’-NMP ⇆ E + NMP” value [13, 19] was 0 and the “k4, E-NMP + H20 ⇆ E’-NMP” value [13, 20] was 0.41 ± 0.03 s⁻¹. For the same compound, the “k5, E’-NMP ⇆ E + NMP” value [13, 20] was >100 s⁻¹, the “fluorescence of bound TpAd relative to unquenched tryptamine” value ([14]; TpAd bound to hHINT2, constraint giving excellent simulations) was ~ 75% and the kon [14, 17] was > 5e+07 M⁻¹ s⁻¹. The koff [14, 18] was > 60 s⁻¹, the “k2, E•TpAd ⇆ E-NMP•Tp” value [14, 21] was 60.8 ± 2.5 s⁻¹ and the “k3, E-NMP•Tp ⇆ E-NMP + Tp” value [14, 21] was >1640 s⁻¹. For the same compound, the “k−2, E•TpAd ⇆ E-NMP•Tp” value [14, 21] was 0, the “k−3, E-NMP•Tp ⇆ E-NMP + Tp” value [14, 21] was 0 and the “k−4, E-NMP + H20 ⇆ E’-NMP” value [14, 21] was 0. For the same compound, the “k−5, E’-NMP ⇆ E + NMP” value [14, 21] was 0, the “k4, E-NMP + H20 ⇆ E’-NMP” value [14, 22] was 1.34 s^−1 ± 0.14 s^−1 and the “k5, E’-NMP ⇆ E + NMP” value [14, 22] was >34 s⁻¹. For the same compound, the Km [15] was 0.13 ± 0.02 µM, the kcat ([15]; substrate turnover) was 2.1 ± 0.1 s⁻¹ and the “k2 (adenylation rate constant)” value ([16]; burst phase 25 °C) was 203 s⁻¹ and 203 ± 13 s⁻¹. The Kd ([16]; read-out: KD (substrate binding), burst phase 25 °C) was 13 ± 2 µM.

Source: article PMC9854251 (Biochemistry, 2022)
